Earlier results, collected in publication PMC5589077 (ACS chemical neuroscience, 2015).

Columns and labels:
α6β2*- and α4β2*-nAChRs = conditions: via activation of α6β2*- and α4β2*-nAChRs; cited from earlier work
[1] = pretreatment with nonreinforcing doses, without affecting motor function; cited from earlier work
α4α6β2-nAChRs = conditions: cited from earlier work

Cc1ncccc1OC[C@@H]1CCCN1 [ABT-089, 2-Methyl-3-[(2S)-pyrrolidin-2-yl]methoxypyridine]
effect on in vitro striatal DA release (α6β2*- and α4β2*-nAChRs): increases in vitro striatal DA release

O=c1cccc2n1CC1CC2CN(CCN2CC3CC(C2)c2cccc(=O)n2C3)C1 [CC4, 1,2-bis-N-Cystinylethane]
effect on nicotine-induced self-administration and CPP [1]: significantly reduced

CN1CCC[C@H]1c1cccnc1 [Nicotine, nicotine]
partial agonist activity at α4α6β2-nAChRs (α4α6β2-nAChRs): 70%
